Results from US4598084A, “Optically active derivatives of N-arylated oxazolidine-2-one, the process for preparing same and their application in therapeutics” (Delalande S.A., priority 1982, dated 1986).
Like-named read-outs stand apart in the source and are kept apart here.

Experiments:
[1] = target: T1, type A monoamine oxidase (MAO.A) (Rattus norvegicus, UniProt P21396); test: in vitro MAO.A inhibition on homogenized rat brain, serotonine (5-HT) substrate; format: biochemical, rats; conditions: Table 1, rat brain homogenate, read-out: MAO.A inhibition effect (5-HT) IC 50
T1 construct: the brains being removed, weighed, homogeneized; from tissue; host or cells: brain of orally dosed rats, homogenized
T1 sequence (P21396 1-526): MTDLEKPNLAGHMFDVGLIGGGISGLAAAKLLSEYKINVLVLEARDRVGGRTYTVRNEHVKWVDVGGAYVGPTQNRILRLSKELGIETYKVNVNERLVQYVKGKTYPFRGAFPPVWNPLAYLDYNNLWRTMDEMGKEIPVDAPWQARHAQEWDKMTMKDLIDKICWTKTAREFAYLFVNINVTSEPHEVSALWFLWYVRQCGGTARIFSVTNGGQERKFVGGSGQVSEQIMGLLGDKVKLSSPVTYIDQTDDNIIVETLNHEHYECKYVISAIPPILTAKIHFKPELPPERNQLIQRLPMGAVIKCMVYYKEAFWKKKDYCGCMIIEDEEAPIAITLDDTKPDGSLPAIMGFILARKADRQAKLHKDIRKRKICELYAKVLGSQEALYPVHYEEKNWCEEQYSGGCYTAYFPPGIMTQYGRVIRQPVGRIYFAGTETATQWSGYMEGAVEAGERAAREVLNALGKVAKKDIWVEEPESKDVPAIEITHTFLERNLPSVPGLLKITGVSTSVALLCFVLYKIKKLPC
Excerpt: (§1) in vitro, on the homogeneized brain of rats, by measuring the dose inhibiting by 50% (IC 50) the activity of monoamine oxidase (MAO) by taking phenylethylamine (PEA) as substrate of type B monoamine oxidase (MAO.B) and serotonine (5-HT) as substrate of type A monoamine oxidase (MAO.A), according to the procedure described by M. STROLIN BENEDETTI et al. in: Monoamine oxidase Basic and Clinical Frontiers, publishers K. KAMISO-E. USDIN-T. NAGATSO-Excepta Medica (1982)-page 209);

[2] = target: T2, type B monoamine oxidase (MAO.B) (Rattus norvegicus, UniProt P19643); test: in vitro MAO.B inhibition on homogenized rat brain, phenylethylamine (PEA) substrate; format: biochemical, rats; conditions: Table 1, rat brain homogenate, read-out: MAO.B inhibition effect (P.E.A.) IC 50
T2 construct: the brains being removed, weighed, homogeneized; from tissue; host or cells: brain of orally dosed rats, homogenized
T2 sequence (P19643 1-520): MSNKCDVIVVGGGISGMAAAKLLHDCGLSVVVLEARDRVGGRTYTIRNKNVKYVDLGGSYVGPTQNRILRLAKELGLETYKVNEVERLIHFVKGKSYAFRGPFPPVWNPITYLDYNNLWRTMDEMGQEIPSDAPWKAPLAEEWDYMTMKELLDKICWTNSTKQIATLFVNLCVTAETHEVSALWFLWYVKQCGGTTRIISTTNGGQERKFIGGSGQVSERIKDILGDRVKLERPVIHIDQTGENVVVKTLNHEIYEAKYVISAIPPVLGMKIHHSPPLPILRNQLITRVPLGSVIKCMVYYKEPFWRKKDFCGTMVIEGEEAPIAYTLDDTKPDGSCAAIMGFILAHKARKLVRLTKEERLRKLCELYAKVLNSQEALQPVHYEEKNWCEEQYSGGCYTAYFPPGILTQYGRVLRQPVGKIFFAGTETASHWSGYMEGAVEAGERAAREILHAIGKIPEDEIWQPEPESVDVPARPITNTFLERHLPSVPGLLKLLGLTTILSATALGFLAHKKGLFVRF
Excerpt: as §1

[3] = target: T2, type B monoamine oxidase (MAO.B); test: ex vivo brain MAO.B inhibition after single oral dose in rats, PEA substrate; conditions: for specificity and reversibility / level of activity: in words; for specificity and reversibility: compared with racemic; for level of activity: compared with racemic or dose; for inhibition at 5 mg/kg / inhibition at 10 mg/kg / inhibition at 20 mg/kg: rat, po; for inhibition at 5 mg/kg: 5 mg/kg p.o.; for inhibition at 10 mg/kg: 10 mg/kg p.o.; for inhibition at 20 mg/kg: 20 mg/kg p.o.
Experimental: (§2) ex vivo, on rats to which was administered orally a single dose of the compounds of formula (I) (or their pharmaceutically acceptable salts) or their corresponding racemic of formula (Io), in a 0.5% suspension in methylcellulose, the rats being sacrificed by being beheaded at varying times, the brains being removed, weighed, homogeneized and the determination of the MAOI activity being made by using serotonine and phenylethylamine, according to the procedure described by J. P. KAN and M. STROLIN-BENEDETTI in Life Sciences 26, 2165, (1980).

[4] = target: T1, type A monoamine oxidase (MAO.A); test: ex vivo brain MAO.A inhibition after single oral dose in rats, 5-HT substrate; conditions: for inhibition at 10 mg/kg: Table 3, 10 mg/kg p.o.; for inhibition at 20 mg/kg: Table 3, 20 mg/kg p.o.
Experimental: as §2

[5] = oral acute toxicity in mice (Miller and Tainter's method); format: in vivo; conditions: mouse, in vivo, mice, oral, read-out: Acute toxicity (mice) LD 50
Excerpt: (§3) The results obtained in the in vitro test are shown in table 1 below and the results obtained in the ex vivo test, as well as the oral acute toxicity in mice evaluated according to MILLER and TAINTER's method [Proc. Soc.

mice = test: as above; format: in vivo; conditions: in words
Excerpt: as §3

[6] = Table 3, rats, 2 hours, read-out: % MAO inhibition effect after n hour(s), PEA
[7] = Table 3, rats, 8 hours, read-out: % MAO inhibition effect after n hour(s), PEA
[8] = Table 3, rats, 24 hours, read-out: % MAO inhibition effect after n hour(s), PEA
[9] = rats, 2 hours, read-out: % MAO inhibition effect after n hour(s), 5-HT
[10] = rats, 8 hours, read-out: % MAO inhibition effect after n hour(s), 5-HT
[11] = rats, 24 hours, read-out: % MAO inhibition effect after n hour(s), 5-HT

For `O=C1O[C@H](CO)CN1c1ccc(OCc2cccc(Cl)c2)cc1` [(Ia), [S(+)] 5-hydroxymethyl 3-p-(meta-chlorobenzyloxy)phenyl oxazolidine-2-one], the IC50 [1] was 9 µM, the IC50 [2] was 0.085 µM and the specificity and reversibility [3] was “much greater specificity”. For the same compound, the level of activity [3] was “activity increases with the dose administered”, the inhibition at 5 mg/kg ([3]; Table 3, rats, 30, unit inferred, read-out: % MAO inhibition effect after n hour(s), PEA) was 47% and the inhibition at 5 mg/kg ([3]; Table 3, rats, 1 hour, read-out: % MAO inhibition effect after n hour(s), PEA) was 47%. For the same compound, the inhibition at 5 mg/kg [3, 6] was 43%, the inhibition at 5 mg/kg ([3]; Table 3, rats, 4 hours, read-out: % MAO inhibition effect after n hour(s), PEA) was 30% and the inhibition at 5 mg/kg [3, 7] was 5%. The inhibition at 5 mg/kg [3, 8] was -5%, the inhibition at 10 mg/kg [3, 6] was 66% and the inhibition at 10 mg/kg [3, 7] was 36%. The inhibition at 10 mg/kg [3, 8] was 6%, the inhibition at 20 mg/kg [3, 6] was 77% and the inhibition at 20 mg/kg [3, 7] was 50%. It also gave an inhibition at 20 mg/kg [3, 8] of 5%, an inhibition at 5 mg/kg ([4]; Table 3, 5 mg/kg p.o., rats, 30, unit inferred, read-out: % MAO inhibition effect after n hour(s), 5-HT) of 3% and an inhibition at 5 mg/kg ([4]; Table 3, 5 mg/kg p.o., rats, 1 hour, read-out: % MAO inhibition effect after n hour(s), 5-HT) of 3%. The inhibition at 5 mg/kg ([4]; Table 3, 5 mg/kg p.o., rats, 2 hours, read-out: % MAO inhibition effect after n hour(s), 5-HT) was 2%, the inhibition at 5 mg/kg ([4]; Table 3, 5 mg/kg p.o., rats, 4 hours, read-out: % MAO inhibition effect after n hour(s), 5-HT) was 3% and the inhibition at 5 mg/kg ([4]; Table 3, 5 mg/kg p.o., rats, 8 hours, read-out: % MAO inhibition effect after n hour(s), 5-HT) was 0%. It also gave an inhibition at 5 mg/kg ([4]; Table 3, 5 mg/kg p.o., rats, 24 hours, read-out: % MAO inhibition effect after n hour(s), 5-HT) of -2%, an inhibition at 10 mg/kg [4, 9] of 5% and an inhibition at 10 mg/kg [4, 10] of 1%. It also gave an inhibition at 10 mg/kg [4, 11] of 0%, an inhibition at 20 mg/kg [4, 9] of 7% and an inhibition at 20 mg/kg [4, 10] of 3%. The inhibition at 20 mg/kg [4, 11] was 0%, the LD50 ([5]; Table 3) was greater than 1000 mg/kg and the “active doses relative to lethal 50 doses” value (mice) was “activities at doses much less than the lethal 50 doses”.
For `CNC[C@@H]1CN(c2ccc(OCc3cccc(Cl)c3)cc2)C(=O)O1` [(Ib), [R(+)] 5-N-methylaminomethyl 3-p-(meta-chlorobenzyloxy)phenyl oxazolidine-2-one], the IC50 [1] was 50 µM, the IC50 [2] was 0.03 µM and the specificity and reversibility [3] was “much greater specificity and reversibility”. The level of activity [3] was “level of activity similar to that of its racemic”, the inhibition at 5 mg/kg ([3]; Table 2, rats, 1 hour, read-out: % MAO inhibition effect after n hour(s), PEA (IMAO.B)) was 74% and the inhibition at 5 mg/kg ([3]; Table 2, rats, 2 hours, read-out: % MAO inhibition effect after n hour(s), PEA (IMAO.B)) was 77%. For the same compound, the inhibition at 5 mg/kg ([3]; Table 2, rats, 4 hours, read-out: % MAO inhibition effect after n hour(s), PEA (IMAO.B)) was 71%, the inhibition at 5 mg/kg ([3]; Table 2, rats, 8 hours, read-out: % MAO inhibition effect after n hour(s), PEA (IMAO.B)) was 61% and the inhibition at 5 mg/kg ([3]; Table 2, rats, 24 hours, read-out: % MAO inhibition effect after n hour(s), PEA (IMAO.B)) was 6%. The inhibition at 5 mg/kg ([3]; Table 2, rats, 48 hours, read-out: % MAO inhibition effect after n hour(s), PEA (IMAO.B)) was 5%, the inhibition at 5 mg/kg ([3]; Table 2, rats, 72 hours, read-out: % MAO inhibition effect after n hour(s), PEA (IMAO.B)) was 0% and the inhibition at 5 mg/kg ([4]; Table 2, 5 mg/kg p.o., rats, 1 hour, read-out: % MAO inhibition effect after n hour(s), 5-HT (IMAO.A)) was -1%. For the same compound, the inhibition at 5 mg/kg ([4]; Table 2, 5 mg/kg p.o., rats, 2 hours, read-out: % MAO inhibition effect after n hour(s), 5-HT (IMAO.A)) was 0%, the inhibition at 5 mg/kg ([4]; Table 2, 5 mg/kg p.o., rats, 4 hours, read-out: % MAO inhibition effect after n hour(s), 5-HT (IMAO.A)) was 0% and the inhibition at 5 mg/kg ([4]; Table 2, 5 mg/kg p.o., rats, 8 hours, read-out: % MAO inhibition effect after n hour(s), 5-HT (IMAO.A)) was 1%. It also gave an inhibition at 5 mg/kg ([4]; Table 2, 5 mg/kg p.o., rats, 24 hours, read-out: % MAO inhibition effect after n hour(s), 5-HT (IMAO.A)) of -1%, an inhibition at 5 mg/kg ([4]; Table 2, 5 mg/kg p.o., rats, 48 hours, read-out: % MAO inhibition effect after n hour(s), 5-HT (IMAO.A)) of -3% and an inhibition at 5 mg/kg ([4]; Table 2, 5 mg/kg p.o., rats, 72 hours, read-out: % MAO inhibition effect after n hour(s), 5-HT (IMAO.A)) of 3%. The LD50 ([5]; Table 2) was greater than 1000 mg/kg and the “active doses relative to lethal 50 doses” value (mice) was “activities at doses much less than the lethal 50 doses”.
